Results published in publication PMC9609496, “Synthesis, In Vitro Anti-Microbial Analysis and Molecular Docking Study of Aliphatic Hydrazide-Based Benzene Sulphonamide Derivatives as Potent Inhibitors of α-Glucosidase and Urease” (Molecules, 2022).
Read-outs that look alike come from different tables or passages of the source.

What was measured:
[1] = target: urease (Canavalia ensiformis, UniProt P07374); assay: biochemical; type: biochemical
Protocol: Figure S6. High resolution Proton NMR Spectrum of 3-chloro-N'- undecanoylbenzenesulfonohydrazide (4.13).
4.16. Urease Assay Protocol
The reaction mixtures, which included […] of enzyme solution and […] of buffers containing 100 mM urea, were incubated in 96-well plates at 30 °C for 15 min with […] of the test compounds (0.5 mM concentration). The urea concentrations were adjusted from 2 -24 mM for the kinetics evaluation. By quantifying ammonia production with Weatherburn's indophenol technique, urease activity was determined.. To each well, 45 μL of the phenol reagent (1% w/v phenol and 0.005% w/v sodium nitroprusside) and 70 μL of the alkali reagent (0.5% w/v NaOH and 0.1% active chloride NaOCl) were added. Using a microplate reader, the rising absorbance at 630 nm was observed after 50 minutes (Molecular Device, USA). In a final volume of […], each reaction was carried out three times. Using the software SoftMaxPro, the results (change in absorbance per minute) were processed (molecular Device, USA). The experiments were run at pH 6.8 throughout. The formula 100-(ODtest well/ODcontrol) 100 was […]
used to calculate the percentage of inhibition. Thiourea was used as the standard inhibitor for […]
4.17. α-Glucosidase Inhibitory Assay Protocol […]
phosphate buffer (pH=6.8), were incubated at 37°C for 15 min in a 96-well plate. 20 µl of p-nitrophenyl—D-glucopyranoside solution was further added as a substrate and again incubated for 20 min at 37 °C. Sodium carbonate (50 µl of 0.1M) was added to terminate the reaction. P-nitrophenol was liberated, during the reaction which was measured at 405n m u sing an ELISA […]
conditions by omitting test samples. All the experiments were carried out in triplicates. The percentage inhibition was calculated by the formula.
% Inhibition = [(Ac – As) /Ac] × 100 Ac-absorbance for control, As-absorbance for standard.
4.18. Molecular Docking Assay
In this study the synthesized compounds were analyzed against α-amylase and α-glucosidase enzyme. […]

[2] = tested on: Alternaria alternate; assay: Anti-fungal activity; type: cell-based; conditions: against Alternaria alternate, standard drug Terinafine
[3] = read-out: Anti-Urease IC50 (µM ± SEM)

Chain of urease (P07374 whole entry, looked up): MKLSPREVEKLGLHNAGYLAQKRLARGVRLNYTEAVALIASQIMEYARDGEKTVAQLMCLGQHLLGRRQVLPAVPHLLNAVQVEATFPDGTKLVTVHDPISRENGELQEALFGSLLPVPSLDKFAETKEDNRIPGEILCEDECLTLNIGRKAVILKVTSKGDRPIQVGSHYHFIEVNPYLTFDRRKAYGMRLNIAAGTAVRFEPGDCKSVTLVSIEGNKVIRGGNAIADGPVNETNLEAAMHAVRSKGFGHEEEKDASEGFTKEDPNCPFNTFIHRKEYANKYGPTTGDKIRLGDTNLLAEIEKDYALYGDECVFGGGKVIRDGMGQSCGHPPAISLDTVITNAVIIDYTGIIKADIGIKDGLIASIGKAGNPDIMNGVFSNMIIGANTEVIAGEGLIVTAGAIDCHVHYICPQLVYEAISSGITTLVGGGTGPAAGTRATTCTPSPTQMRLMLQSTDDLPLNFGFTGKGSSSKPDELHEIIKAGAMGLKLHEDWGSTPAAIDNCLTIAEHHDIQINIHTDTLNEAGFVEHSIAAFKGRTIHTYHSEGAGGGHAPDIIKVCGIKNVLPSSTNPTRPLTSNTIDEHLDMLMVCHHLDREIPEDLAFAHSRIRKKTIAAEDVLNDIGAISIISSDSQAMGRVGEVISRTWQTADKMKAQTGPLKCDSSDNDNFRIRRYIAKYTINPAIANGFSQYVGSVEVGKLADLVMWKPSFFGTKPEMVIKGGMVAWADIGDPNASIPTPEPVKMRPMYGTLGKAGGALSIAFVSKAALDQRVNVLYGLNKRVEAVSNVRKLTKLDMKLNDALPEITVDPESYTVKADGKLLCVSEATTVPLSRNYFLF

CCCCC(=O)NNS(=O)(=O)c1ccc(F)cc1[N+](=O)[O-] [Analog 5]
IC50 [1]: 2.1 ± 0.1 µM
anti-fungal activity [2]: exhibited anti-fungal profiles

NC(N)=S [thiourea, reference compound]
IC50 [1, 3]: 7.8 µM

CCCCCCCCCCC(=O)NNS(=O)(=O)c1cccc(Cl)c1 [Analog 13, 3-chloro-N'-undecanoylbenzenesulfonohydrazide]
IC50 [1, 3]: 18.4 ± 0.3 µM
melting point: 168 to 169 °C
